Experiments:
[1] = Displacement of [3H]EPI from Aplysia AChBP expressed in HEK293S cells by scintillation proximity assay; assay type: cell-based
[2] = Displacement of [3H]ACE from Aplysia AChBP expressed in HEK293S cells by scintillation proximity assay; assay type: cell-based
[3] = Inhibition of [3H]1-((5-azido-6-chloropyridin-3-yl)methyl)-3-methyl-2-nitroguanidine incorporation into AchBP assessed as protection of photoaffinity labeling at 500 pmol; design: scale not given: the % may be the effect or the level left

Structure (SMILES): N#C/N=C1\SCCN1Cc1ccc(Cl)nc1 [THIACLOPRID]
- Ki [1]: 8.4 nM
- Ki [2]: 9.9 nM

Structure (SMILES): CN/C(=N\[N+](=O)[O-])NCc1cnc(Cl)s1 [CLOTHIANIDINE]
- Ki [1]: 574 nM
- Ki [2]: 808 nM

Structure (SMILES): CCN(Cc1ccc(Cl)nc1)/C(=C/[N+](=O)[O-])NC [NITENPYRAM]
- Ki [1]: 180 nM
- Ki [2]: 335 nM

Structure (SMILES): N=C1NCCN1Cc1ccc(Cl)nc1 [DESNITROIMIDACLOPRID]
- Ki [1]: 44 nM
- Ki [2]: 56 nM

Structure (SMILES): O=[N+]([O-])/N=C1\NCCN1Cc1ccc(Cl)nc1 [IMIDACLOPRID]
- Activity [3]: 50%
- Ki [1]: 180 nM
- Ki [2]: 267 nM

Structure (SMILES): N#C/N=c1\sccn1Cc1cnc(Cl)c(N=[N+]=[N-])c1
- Ki [1]: 1.7 nM
- Ki [2]: 2.3 nM

Structure (SMILES): C/C(=N\C#N)N(C)Cc1ccc(Cl)nc1 [ACETAMIPRID]
- Ki [1]: 19 nM
- Ki [2]: 41 nM

Structure (SMILES): CN1CCC[C@H]1c1cccnc1 [NICOTINE]
- Ki [1]: 260 nM
- Ki [2]: 415 nM

Structure (SMILES): Clc1ccc(C2CC3CCC2N3)cn1 (racemic) [EPIBATIDINE]
- Ki [1]: 8.6 nM
- Ki [2]: 14 nM

Structure (SMILES): N=C1SCCN1Cc1ccc(Cl)nc1 [DESCYANOTHIACLOPRID]
- Ki [1]: 8.5 nM
- Ki [2]: 10 nM

— ChEMBL document CHEMBL1142224, “Mapping the elusive neonicotinoid binding site” (Proc Natl Acad Sci U S A, 2007)
